Values quoted from earlier work as cited in patent US9572826B2, “Compositions for the treatment of hair loss” (priority 2008, dated 2017).

Experiments:
hair loss = details: human, in vivo
alopecia areata = details: intralesional injection

Row | SMILES | patients in whom effective (hair loss) | side effects reported (hair loss) | injected sites with hair regrowth (alopecia areata)
1 | CC(C)(C)NC(=O)[C@H]1CC[C@H]2[C@@H]3CC[C@H]4NC(=O)C=C[C@]4(C)[C@H]3CC[C@]12C [Finasteride] | approximately 50% | erectile dysfunction and gynecomastica | –
2 | CC(C)(C)CC(=O)OCC(=O)[C@@]12OC(C)(C)O[C@@H]1C[C@H]1[C@@H]3CCC4=CC(=O)C=C[C@]4(C)[C@@]3(F)[C@@H](O)C[C@@]12C [triamcinolone hexacetonide] | – | – | 33 out of 34
